19 molecules from patent US20260265244A1, “HETEROCYCLIC COMPOUNDS AS STING ANTAGONISTS” (Boehringer Ingelheim International GmbH, priority 2022, published 2026) can be followed below.

The target of the test is T1, cGAMP binding domain of wild-type (GRR) human STING, residues 155-341 (Homo sapiens, UniProt Q86WV6, H232R).
T1 construct: His-TEV-hSTING (WT); TEV protease cleavage site (N); made in house; host or cells: E. coli BL21 DE3
T1 sequence (Q86WV6 with tags, fused parts or gaps H232R): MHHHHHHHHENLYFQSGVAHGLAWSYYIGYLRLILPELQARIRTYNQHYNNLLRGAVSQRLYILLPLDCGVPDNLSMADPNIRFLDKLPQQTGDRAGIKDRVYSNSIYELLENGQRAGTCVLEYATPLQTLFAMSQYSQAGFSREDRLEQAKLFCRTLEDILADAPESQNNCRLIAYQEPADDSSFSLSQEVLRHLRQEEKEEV
Put plainly: Increase of stability of STING protein against thermal denaturation, Differential Scanning Fluorimetry (DSF). As to the method: Dye fluorescence is quenched in aqueous environment and increases upon association of the dye with the hydrophobic parts of the unfolding protein. […] The inflection point of the curve represents the “melting” temperature of the protein (Tm) which is calculated numerically using the Boltzmann equation.
Method: The thermal stability of the STING protein was measured using a specific expression construct of the cGAMP binding domain of wild-type (GRR) human STING comprising residues 155-341 and a N-terminal 8×His-tag (SEQ ID NO: 3) in assay buffer containing 20 mM Tris, 150 mM NaCl at pH7.5.
The assay uses Hard-Shell® PCR Plates 384-Well CLR/WHT (Catalog #HSP3805, BIO-RAD), Microseal® ‘B’ Adhesive Seals for PCR Plates (Catalog #MSB-1001, BIO-RAD) and was run on a CFX384 Real-Time System (Bio-Rad).
A DMSO stock solution of SYPRO orange (SIGMA S5692-500UL) was prepared.
Compound stock solutions (10 mM in DMSO) were diluted 1:2 in DMSO to an intermediate compound concentration of 5 mM and then further diluted 1:40 in assay buffer resulting in a compound concentration of 125 μM and 2.5% DMSO.
Fluorescent dye stock solution (5000×SYPRO Orange) was then mixed with target protein and buffer to a concentration of 15 uM Protein and 25×SYPRO Orange. 2 ul of this protein-dye-mixture was added to 8 ul compound solution. Final volume was 10 uL. 3-6 well positions were used as negative control (protein with 2% DMSO). The plates were prepared for duplicate measurement and centrifuged for 2 min at 1000 g. In the measurement, 160 cycles of 0.5° C. were used (temperature ramp 15 s/cycle, 15° C. to 95° C.).
Final Assay concentrations for compound characterization were as follows: 100 uM compound, 3 uM target protein, 5×SYPRO Orange, 2% DMSO in 10 ul. All dispensing steps were performed using a HamiltonStar pipetting robot (Hamilton).
Dissociation curves were processed in Bio-Rad CFX Manager. Peak type was set to “negative”. Compound codes for screen were assigned in the plate layout.
Two replicates of TM measurements were averaged, and the standard deviation was calculated. In cases of SD>1.5° C. the measurement was repeated.
The melting point (Tm) obtained for STING protein alone was subtracted from T obtained for protein incubated with ligand to generate ΔTm values.
Protein production and purification: The protein used for the biophysical experiments was a recombinant human STING protein comprising its cytosolic ectodomain. A codon optimized DNA sequence (for expression in Escherichia coli) encoding amino acid residues 155 to 341 (Swiss Prot Q86WV6) of human STING (WT) was synthesized by GeneArt (Regensburg, Germany) and inserted into a pET17b E. coli expression vector. The protein construct encodes an N-terminal 8×His-tag (SEQ ID NO: 3) followed by tobacco etch virus protease (TEV) cleavage site and the above STING gene sequence. The resulting protein sequence for the used STING variant is listed below:
For expression of recombinant human STING above construct was transformed into E. coli BL21 DE3 strain and grown in shake flasks in LB-medium at 37° C. Expression was induced by addition of isopropyl β-D-1-thiogalactopyranoside to a final concentration of 1 mM and cultures shaken overnight. Cell pellets were centrifuged and stored at −70° C. until further use. Protein was purified by cell thawing in lysis buffer (20 mM TRIS-HCl, pH 8, 300 mM NaCl, 2 mM mercaptoethanol, 20 mM imidazole, Complete Protease Inhibitor (Roche) and DNase (Roche)), followed by metal affinity purification using Ni-NTA resins and elution buffer consisting of 20 mM TRIS-HCl, pH 8, 300 mM NaCl, 2 mM mercaptoethanol, 300 mM imidazole and size exclusion chromatography in running buffer (20 mM TRIS-HCl, pH 8, 100 mM NaCl, 2 mM DTT). The peak fraction was collected and concentrated to 2.5 mg/mL.
For orientation: DSF heats the sample and reads unfolding from a dye or from intrinsic fluorescence.
For `Cn1cc2cc(-c3nc(-c4cccc5nn(C[C@H](O)c6ccc(OCC7CCOCC7)cc6)cc45)c(C4CC4)n3C)c(C3CC3)nc2n1` [Example 68], the DSF was found to be 28 K. Consider `Cn1cc2cc(-c3nc(-c4cccc5nn(C[C@H](O)c6ccccc6)cc45)c(C4CC4)n3C)c(C3CC3(F)F)nc2n1` (stereo partly drawn) [Example 110, (1R)-2-(4-{5-cyclopropyl-2-[6-(2,2-difluorocyclopropyl)-2-methyl-2H-pyrazolo[3,4-b]pyridin-5-yl]-1-methyl-1H-imidazol-4-yl}-2H-indazol-2-yl)-1-phenylethan-1-ol], for which the DSF is 29 K. Molecule `COc1ccc(Cn2cc3cc(-c4nc(-c5cccc6nn(C[C@H](O)c7ccccc7)cc56)c(C5CC5)n4C)c(C4CC4)nc3n2)cc1` [Example 9, (1R)-2-[4-(5-cyclopropyl-2-{6-cyclopropyl-2-[(4-methoxyphenyl)methyl]-2H-pyrazolo[3,4-b]pyridin-5-yl}-1-methyl-1H-imidazol-4-yl)-2H-indazol-2-yl]-1-phenylethan-1-ol] yielded a DSF of 33 K. The figure for `Cc1nc2nn(Cc3ncnn3C)cc2cc1-n1nc(-c2cccc3nn(C[C@H](O)c4ccccc4)cc23)c(C(C)C)c1C` [Example 62, (1R)-2-[4-(5-methyl-1-{6-methyl-2-[(1-methyl-1H-1,2,4-triazol-5-yl)methyl]-2H-pyrazolo[3,4-b]pyridin-5-yl}-4-(propan-2-yl)-1H-pyrazol-3-yl)-2H-indazol-2-yl]-1-phenylethan-1-ol] is 25 K; for `Cc1c(C(C)C)c(-c2cccc3nn(C[C@H](O)c4ccccc4)cc23)nn1-c1cc2cn(C)nc2nc1C1CCC1` [Example 53, (1R)-2-[4-(1-{6-cyclobutyl-2-methyl-2H-pyrazolo[3,4-b]pyridin-5-yl}-5-methyl-4-(propan-2-yl)-1H-pyrazol-3-yl)-2H-indazol-2-yl]-1-phenylethan-1-ol] it is 30 K; for `Cc1c(C(C)C)c(-c2cccc3nn(C[C@H](O)c4ccccc4)cc23)nn1-c1cc2cn(C)nc2nc1OC(C)C` [Example 23, (1R)-2-(4-{5-methyl-1-[2-methyl-6-(propan-2-yloxy)-2H-pyrazolo[3,4-b]pyridin-5-yl]-4-(propan-2-yl)-1H-pyrazol-3-yl}-2H-indazol-2-yl)-1-phenylethan-1-ol] it is 25 K. As to `Cn1c(-c2cc3cn(CCCN4CCCC4=O)nc3nc2C2CC2)nc(-c2cccc3nn(C[C@H](O)c4ccccc4)cc23)c1C1CC1` [Example 28, 1-{3-[6-cyclopropyl-5-(5-cyclopropyl-4-{2-[(2R)-2-hydroxy-2-phenylethyl]-2H-indazol-4-yl}-1-methyl-1H-imidazol-2-yl)-2H-pyrazolo[3,4-b]pyridin-2-yl]propyl}pyrrolidin-2-one], the DSF was determined as 31 K.

`Cc1nc2nn(CCCO)cc2cc1-n1nc(-c2cccc3nn(C[C@H](O)c4ccccc4)cc23)c(C(C)C)c1C` [Example 32, 3-[5-(3-{2-[(2R)-2-hydroxy-2-phenylethyl]-2H-indazol-4-yl}-5-methyl-4-(propan-2-yl)-1H-pyrazol-1-yl)-6-methyl-2H-pyrazolo[3,4-b]pyridin-2-yl]propan-1-ol] yielded a DSF of 28 K. The result for `CC(C)c1nc2nn(C)cc2cc1-c1nc(-c2cccc3nn(C[S@@+]([O-])c4ccccc4)cc23)c(C2CC2)n1C` [Example 22, 2-{[(S)-benzenesulfinyl]methyl}-4-{5-cyclopropyl-1-methyl-2-[2-methyl-6-(propan-2-yl)-2H-pyrazolo[3,4-b]pyridin-5-yl]-1H-imidazol-4-yl}-2H-indazole] reads 33 K; that for `Cc1nc2nn(CCO)cc2cc1-n1nc(-c2cccc3nn(C[C@H](O)c4ccccc4)cc23)c(C(C)C)c1C` [Example 37, (1R)-2-(4-{1-[2-(2-hydroxyethyl)-6-methyl-2H-pyrazolo[3,4-b]pyridin-5-yl]-5-methyl-4-(propan-2-yl)-1H-pyrazol-3-yl}-2H-indazol-2-yl)-1-phenylethan-1-ol], 27 K. In turn, `CSc1nc2nn(C)cc2cc1-n1nc(-c2cccc3nn(C[C@H](O)c4ccccc4)cc23)c(C(C)C)c1C` [Example 20, (1R)-2-(4-{5-methyl-1-[2-methyl-6-(methylsulfanyl)-2H-pyrazolo[3,4-b]pyridin-5-yl]-4-(propan-2-yl)-1H-pyrazol-3-yl}-2H-indazol-2-yl)-1-phenylethan-1-ol] showed a DSF of 27 K. `Cc1nc2nn(C)cc2cc1-n1nc(-c2cccc3nn(C[C@H](OCCO)c4ccccc4)cc23)c(C(C)C)c1C` [Example 8, 2-[(1R)-2-[4-(1-{2,6-dimethyl-2H-pyrazolo[3,4-b]pyridin-5-yl}-5-methyl-4-(propan-2-yl)-1H-pyrazol-3-yl)-2H-indazol-2-yl]-1-phenylethoxy]ethan-1-ol]: the DSF amounted to 24 K. The result for `Cn1c(-c2cc3cn(CCC#N)nc3nc2C2CC2)nc(-c2cccc3nn(C[C@H](O)c4ccccc4)cc23)c1C1CC1` [Example 104, 3-[6-cyclopropyl-5-(5-cyclopropyl-4-{2-[(2R)-2-hydroxy-2-phenylethyl]-2H-indazol-4-yl}-1-methyl-1H-imidazol-2-yl)-2H-pyrazolo[3,4-b]pyridin-2-yl]propanenitrile] reads 31 K. The result for `Cc1nc2nn(CCN3CCOCC3)cc2cc1-n1nc(-c2cccc3nn(C[C@H](O)c4ccccc4)cc23)c(C(C)C)c1C` [Example 1, (1R)-2-[4-(5-methyl-1-{6-methyl-2-[2-(morpholin-4-yl)ethyl]-2H-pyrazolo[3,4-b]pyridin-5-yl}-4-(propan-2-yl)-1H-pyrazol-3-yl)-2H-indazol-2-yl]-1-phenylethan-1-ol] reads 26 K; that for `CC(C)c1nc2nn(C)cc2cc1-c1nc(-c2cccc3nn(C[C@H](O)c4ccccc4)cc23)c(C2CC2)n1C` [Example 97, (1R)-2-(4-{5-Cyclopropyl-1-methyl-2-[2-methyl-6-(propan-2-yl)-2H-pyrazolo[3,4-b]pyridin-5-yl]-1H-imidazol-4-yl}-2H-indazol-2-yl)-1-phenylethan-1-ol], 31 K. The figure for `COCc1nc2nn(C)cc2cc1-n1nc(-c2cccc3nn(C[C@H](O)c4ccccc4)cc23)c(C(C)C)c1C` [Example 17, (1R)-2-(4-{1-[6-(methoxymethyl)-2-methyl-2H-pyrazolo[3,4-b]pyridin-5-yl]-5-methyl-4-(propan-2-yl)-1H-pyrazol-3-yl}-2H-indazol-2-yl)-1-phenylethan-1-ol] is 27 K; for `Cc1c(C(C)C)c(-c2cccc3nn(C[C@H](O)c4ccccc4)cc23)nn1-c1cc2cn(C)nc2nc1CN(C)C` [Example 112] it is 23 K. Turning to `Cc1nc2nn(C)cc2cc1-n1nc(-c2cccc3nn(C[C@H](OCC(N)=O)c4ccccc4)cc23)c(C(C)C)c1C` [Example 108, 2-[(1R) -2-[4-(1-{2,6-dimethyl-2H-pyrazolo[3,4-b]pyridin-5-yl}-5-methyl-4-(propan-2-yl)-1H-pyrazol-3-yl)-2H-indazol-2-yl]-1-phenylethoxy]acetamide], the DSF is reported as 27 K.

`CCn1cc2cc(-n3nc(-c4cccc5nn(C[C@H](O)c6ccccc6)cc45)c(C(C)C)c3C)c(C)nc2n1` [Example 100, (1R)-2-[4-(1-{2-ethyl-6-methyl-2H-pyrazolo[3,4-b]pyridin-5-yl}-5-methyl-4-(propan-2-yl)-1H-pyrazol-3-yl)-2H-indazol-2-yl]-1-phenylethan-1-ol]: the DSF is 28 K.
